According to US20260334439A1, “BCAT2 INHIBITORS” (Agios Pharmaceuticals, Inc., priority 2023, published 2026):

How the values were obtained:
BCAT2 [1] = molecular target: T1, BCAT2 (Homo sapiens, UniProt O15382); test: BCAT2 in vitro enzyme inhibition assay (hBCAT2, glutamate dehydrogenase/diaphorase/resazurin coupled fluorescence read); format: biochemical; conditions: hBCAT2, 1 h preincubation at 25° C., one hour reaction; average where tested multiple times
T1 sequence (O15382 28-392): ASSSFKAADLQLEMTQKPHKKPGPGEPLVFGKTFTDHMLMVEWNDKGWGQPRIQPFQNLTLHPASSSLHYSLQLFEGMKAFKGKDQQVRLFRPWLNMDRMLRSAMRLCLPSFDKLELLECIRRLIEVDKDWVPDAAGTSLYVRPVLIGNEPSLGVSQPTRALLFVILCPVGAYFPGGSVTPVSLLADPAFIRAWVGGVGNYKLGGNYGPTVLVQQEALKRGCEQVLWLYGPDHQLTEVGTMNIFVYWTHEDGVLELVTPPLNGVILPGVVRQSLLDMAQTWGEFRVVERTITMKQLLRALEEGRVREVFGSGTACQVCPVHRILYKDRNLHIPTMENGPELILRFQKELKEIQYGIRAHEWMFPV
Outline: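 hBCAT2 (0.33 μg/mL in mix) preincubated 1 h at 25 °C with compound (top 100 μM, 3-fold, 10 points) in Tris pH 8.0/NaCl/BSA; substrate mix added (L-leucine, α-ketoglutarate, GDH, NAD, diaphorase, resazurin), quenched with SDS after 1 h, fluorescence Ex 540/Em 590; duplicates, repeat tests averaged.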

BCAT2 [2] = molecular target: T1, BCAT2; test: BCAT2 cell inhibition using engineered A549 cells (MUT KO, BCAT1 KO; 13C6-KMV formation by LC-MS/MS); format: cell-based; design: expressed endogenous BCAT2; endogenous in cells; host or cells: A549 cells, MUT knockout and BCAT1 knockout
Outline: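 Medium 13C6-KMV formation is read by LC-MS/MS after PFBHA derivatization with d8-KMV internal standard. Cells are CRISPR MUT/BCAT1 double-knockout A549 expressing endogenous BCAT2, given compound 15 min before labelled isoleucine (800 uM, added 1:1) for 24 h. CTG viability run in parallel; replicates averaged.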

Row | IC50 (BCAT2 [1]) [µM] | IC50 (BCAT2 [2]) [µM] | IC50 (BCAT2 [2]; read-out: BCAT2 Cell Inhibition (IC50), engineered A549 cells, 24 hours, 13C6-KMV in media, average where tested multiple times) [µM] | SMILES
1 | < 0.1 | < 0.1 | – | COCCOc1ccc(F)cc1C(=O)N[C@H]1CCC[C@@H](n2c(-c3ccccc3F)nc3cnc(-c4nc[nH]n4)cc32)C1 [Example 59, 5-fluoro-N-((1S,3R)-3-(2-(2-fluorophenyl)-6-(1H-1,2,4-triazol-3-yl)-1H-imidazo[4,5-c]pyridin-1-yl)cyclohexyl)-2-(2-methoxyethoxy)benzamide]
2 | < 0.1 | 0.5 to 1 | – | CN(C)Cc1ccc(Cl)cc1C(=O)N[C@H]1CCC[C@@H](n2c(-c3ccccc3F)nc3cnc(-c4nc[nH]n4)cc32)C1 [Example 37, 5-chloro-2-((dimethylamino)methyl)-N-((1S,3R)-3-(2-(2-fluorophenyl)-6-(1H-1,2,4-triazol-3-yl)-1H-imidazo[4,5-c]pyridin-1-yl)cyclohexyl)benzamide]
3 | < 0.1 | < 0.1 | – | O=C(N[C@H]1CCC[C@@H](n2c(-c3ccccc3F)nc3cnc(-c4nc[nH]n4)cc32)C1)c1cc(C(F)F)ccn1 [compound 100]
4 | < 0.1 | < 0.1 | – | CC(C)Oc1ccc(Cl)cc1C(=O)N[C@H]1CCC[C@@H](n2c(-c3ccccc3F)nc3cnc(-c4nc[nH]n4)cc32)C1 [Example 18, 5-chloro-N-((1S,3R)-3-(2-(2-fluorophenyl)-6-(1H-1,2,4-triazol-3-yl)-1H-imidazo[4,5-c]pyridin-1-yl)cyclohexyl)-2-isopropoxybenzamide]
5 | < 0.1 | < 0.1 | – | O=C1c2cc(F)ccc2CN1[C@H]1CCC[C@@H](n2c(-c3ccccc3OC(F)F)nc3cnc(-c4nc[nH]n4)cc32)C1 [compound 180]
6 | < 0.1 | < 0.1 | – | O=C1c2cc(F)ccc2CN1[C@H]1CCC[C@@H](n2c(-c3ncccc3F)nc3cnc(-c4nc[nH]n4)cc32)C1 [Example 170, 6-fluoro-2-((1S,3R)-3-(2-(3-fluoropyridin-2-yl)-6-(1H-1,2,4-triazol-3-yl)-1H-imidazo[4,5-c]pyridin-1-yl)cyclohexyl)isoindolin-1-one]
7 | < 0.1 | < 0.1 | – | CC(C)(O)COc1ccc(Cl)cc1C(=O)N[C@H]1CCC[C@@H](n2c(-c3ccccc3F)nc3cnc(-c4nc[nH]n4)cc32)C1 [Example 39, 5-chloro-N-((1S,3R)-3-(2-(2-fluorophenyl)-6-(1H-1,2,4-triazol-3-yl)-1H-imidazo[4,5-c]pyridin-1-yl)cyclohexyl)-2-(2-hydroxy-2-methylpropoxy)benzamide]
8 | < 0.1 | 0.1 to 0.5 | – | Cc1coc(-c2cc3c(cn2)nc(-c2ccccc2C#N)n3[C@@H]2CCC[C@H](NC(=O)c3cc(F)ccc3F)C2)n1 [Example 93, N-((1S,3R)-3-(2-(2-cyanophenyl)-6-(4-methyloxazol-2-yl)-1H-imidazo[4,5-c]pyridin-1-yl)cyclohexyl)-2,5-difluorobenzamide]
9 | < 0.1 | < 0.1 | – | O=C1c2c(F)cccc2CN1[C@H]1CCC[C@@H](n2c(-c3ccccc3F)nc3cnc(-c4nc[nH]n4)cc32)C1 [Example 175, 7-fluoro-2-((1S,3R)-3-(2-(2-fluorophenyl)-6-(1H-1,2,4-triazol-3-yl)-1H-imidazo[4,5-c]pyridin-1-yl)cyclohexyl)isoindolin-1-one]
10 | < 0.1 | 0.1 to 0.5 | – | O=C1c2cc(F)ccc2CN1[C@H]1CCC[C@@H](n2c(-c3c(F)cccc3OC(F)F)nc3ccc(-c4nc[nH]n4)cc32)[C@@H]1O [compound 240]
11 | 0.1 to 0.5 | – | > 1 | CCNc1ccc(Cl)cc1C(=O)N[C@H]1CCC[C@@H](n2c(-c3ccccc3F)nc3cnc(-c4nc[nH]n4)cc32)C1 [Example 32, 5-chloro-2-(ethylamino)-N-((1S,3R)-3-(2-(2-fluorophenyl)-6-(1H-1,2,4-triazol-3-yl)-1H-imidazo[4,5-c]pyridin-1-yl)cyclohexyl)benzamide]
12 | < 0.1 | < 0.1 | – | O=C(N[C@H]1CCC[C@@H](n2c(-c3ncccc3F)nc3cnc(-c4nc[nH]n4)cc32)C1)c1cc(Cl)ccn1 [Example 15, 4-chloro-N-((1S,3R)-3-(2-(3-fluoropyridin-2-yl)-6-(1H-1,2,4-triazol-3-yl)-1H-imidazo[4,5-c]pyridin-1-yl)cyclohexyl)picolinamide]
13 | < 0.1 | 0.1 to 0.5 | – | CCOc1ccc(Cl)cc1C(=O)N[C@H]1CCC[C@@H](n2c(-c3ccccn3)nc3cnc(-c4nc[nH]n4)cc32)C1 [Example 26, 5-chloro-2-ethoxy-N-((1S,3R)-3-(2-(pyridin-2-yl)-6-(1H-1,2,4-triazol-3-yl)-1H-imidazo[4,5-c]pyridin-1-yl)cyclohexyl)benzamide]
14 | < 0.1 | < 0.1 | – | O=C(N[C@H]1CCC[C@@H](n2c(-c3ccccc3F)nc3cnc(-c4nc[nH]n4)cc32)C1)c1cc(F)ccc1F [Example 58, 2,5-difluoro-N-((1S,3R)-3-(2-(2-fluorophenyl)-6-(1H-1,2,4-triazol-3-yl)-1H-imidazo[4,5-c]pyridin-1-yl)cyclohexyl)benzamide]
15 | < 0.1 | 0.1 to 0.5 | – | CO[C@H]1C[C@H](N2Cc3ccc(F)cc3C2=O)C[C@H](n2c(-c3ccccc3OCCO)nc3ccc(-c4ncco4)cc32)C1 [Example 241, 6-fluoro-2-((1R,3S,5R)-3-(2-(2-(2-hydroxyethoxy)phenyl)-6-(oxazol-2-yl)-1H-benzo[d]imid-azol-1-yl)-5-methoxycyclohex-yl)isoindolin-1-one]
16 | < 0.1 | < 0.1 | – | N#Cc1ccc(F)cc1C(=O)N[C@H]1CCC[C@@H](n2c(-c3ccccc3F)nc3cnc(-c4nc[nH]n4)cc32)C1 [Example 98, 2-cyano-5-fluoro-N-((1S,3R)-3-(2-(2-fluorophenyl)-6-(4H-1,2,4-triazol-3-yl)-1H-imidazo[4,5-c]pyridin-1-yl)cyclohexyl)benzamide]
17 | < 0.1 | < 0.1 | – | CN1C[C@H](NC(=O)c2cc(Cl)ccn2)C[C@H](n2c(-c3ccccc3OC(F)F)nc3cnc(-c4nc[nH]n4)cc32)C1 [compound 141]
18 | < 0.1 | < 0.1 | – | COc1ccccc1C(=O)N[C@H]1CCC[C@@H](n2c(-c3ccccc3F)nc3cnc(-c4nc[nH]n4)cc32)C1 [Example 5, N-((1S,3R)-3-(2-(2-fluorophenyl)-6-(1H-1,2,4-triazol-3-yl)-1H-imidazo[4,5-c]pyridin-1-yl)cyclohexyl)-2-methoxybenzamide]
19 | < 0.1 | 0.5 to 1 | – | O=C(N[C@H]1CCC[C@@H](n2c(-c3ccccc3F)nc3cnc(-c4nc[nH]n4)cc32)C1)c1cc(Cl)ccc1OC(F)(F)F [Example 4, 5-chloro-N-((1S,3R)-3-(2-(2-fluorophenyl)-6-(1H-1,2,4-triazol-3-yl)-1H-imidazo[4,5-c]pyridin-1-yl)cyclohexyl)-2-(trifluoromethoxy)benzamide]
20 | < 0.1 | < 0.1 | – | COc1ncc(Cl)cc1C(=O)N[C@H]1CCC[C@@H](n2c(-c3ccccc3F)nc3cnc(-c4nc[nH]n4)cc32)C1 [Example 22, 5-chloro-N-((1S,3R)-3-(2-(2-fluorophenyl)-6-(1H-1,2,4-triazol-3-yl)-1H-imidazo[4,5-c]pyridin-1-yl)cyclohexyl)-2-methoxynicotinamide]
21 | < 0.1 | < 0.1 | – | CO[C@H]1C[C@H](NC(=O)c2cc(Cl)ccc2OCCO)C[C@H](n2c(-c3ccccc3F)nc3cnc(-c4nc[nH]n4)cc32)C1 [Example 119, 5-chloro-N-((1R,3S,5S)-3-(2-(2-fluorophenyl)-6-(1H-1,2,4-triazol-3-yl)-1H-imidazo[4,5-c]pyridin-1-yl)-5-methoxycyclohexyl)-2-(2-hydroxyethoxy)benzamide]
22 | < 0.1 | < 0.1 | – | COc1ccc(Cl)cc1C(=O)N[C@H]1C[C@H](OC)C[C@@H](n2c(-c3ccccc3F)nc3cnc(-c4nc[nH]n4)cc32)C1 [Example 106, 5-chloro-N-((1R,3S,5S)-3-(2-(2-fluorophenyl)-6-(1H-1,2,4-triazol-3-yl)-1H-imidazo[4,5-c]pyridin-1-yl)-5-methoxycyclohexyl)-2-methoxybenzamide]
23 | < 0.1 | < 0.1 | – | O=C(N[C@H]1CCC[C@@H](n2c(-c3ccccc3F)nc3cnc(-c4ncn(C(F)F)n4)cc32)[C@@H]1O)c1cc(Cl)ccn1 [compound 118]
24 | < 0.1 | < 0.1 | – | O=C1c2ccccc2CN1[C@H]1CCC[C@@H](n2c(-c3ccccc3F)nc3cnc(-c4nc[nH]n4)cc32)C1 [Example 174, 2-((1S,3R)-3-(2-(2-fluorophenyl)-6-(1H-1,2,4-triazol-3-yl)-1H-imidazo[4,5-c]pyridin-1-yl)cyclohexyl)isoindolin-1-one]
25 | < 0.1 | < 0.1 | – | O=C(N[C@H]1CCC[C@@H](n2c(-c3ccccc3F)nc3cnc(-c4nc[nH]n4)cc32)C1)c1cc(Cl)ccc1OC1CC1 [Example 29, 5-chloro-2-cyclopropoxy-N-((1S,3R)-3-(2-(2-fluorophenyl)-6-(1H-1,2,4-triazol-3-yl)-1H-imidazo[4,5-c]pyridin-1-yl)cyclohexyl)benzamide]
